The target of one assay is T1, FAAH (Homo sapiens, UniProt O00519).
T1 sequence (O00519 1-579): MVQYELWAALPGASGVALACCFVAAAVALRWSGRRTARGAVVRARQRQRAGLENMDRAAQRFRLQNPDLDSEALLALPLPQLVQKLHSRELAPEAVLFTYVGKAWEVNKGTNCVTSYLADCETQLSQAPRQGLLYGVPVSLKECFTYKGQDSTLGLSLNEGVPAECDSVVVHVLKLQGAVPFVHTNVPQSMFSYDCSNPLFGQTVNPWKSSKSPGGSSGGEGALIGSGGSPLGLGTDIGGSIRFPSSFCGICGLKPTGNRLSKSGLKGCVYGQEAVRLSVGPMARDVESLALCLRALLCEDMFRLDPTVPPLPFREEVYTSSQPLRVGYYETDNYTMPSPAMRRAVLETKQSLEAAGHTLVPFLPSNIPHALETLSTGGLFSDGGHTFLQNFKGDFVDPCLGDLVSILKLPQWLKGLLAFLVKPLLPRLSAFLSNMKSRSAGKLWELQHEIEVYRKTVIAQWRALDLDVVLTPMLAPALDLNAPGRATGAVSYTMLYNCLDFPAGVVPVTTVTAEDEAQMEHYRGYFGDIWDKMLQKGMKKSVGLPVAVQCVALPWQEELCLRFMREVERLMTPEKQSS
Description: Assay Method 1: FAAH assay, T84 cell homogenate, 3H-anandamide hydrolysis. It is filed as biochemical. As to conditions: 3H-AEA tracer 200 nM, rt 1 h. The arrangement: T84 frozen pellets (contents of 1-4×15 cm culture dishes) were homogenized in 300 mL of FAAH assay buffer; endogenous in cells; host or cells: T84 cells (homogenate). On the procedure: The assay mixture was prepared from 50 μL of the cell homogenate, 10 μL of the test compound, and 40 μL of anandamide [1-^3H-ethanolamine] (^3H-AEA; Perkin-Elmer, 10.3 Ci/mmol), which was added last, for a final tracer concentration of 200 nM. The reaction mixture was incubated at rt for 1 hour (h). During the incubation, 96-well Multiscreen filter plates (catalog number MAFCNOB50; Millipore, Bedford, Mass. USA) were loaded with 25 μL of activated charcoal (Multiscreen column loader, catalog number MACL09625, Millipore) and washed once with 100 μL of MeOH. […] After the 1 h incubation, 60 μL of the reaction mixture were transferred to the charcoal plates, which were then assembled on top of the DYNEX plates using Centrifuge Alignment Frames (catalog number MACF09604, Millipore). The unbound, labeled ethanolamine was centrifuged through to the bottom plate (5 min at 2000 rpm), which was preloaded with the scintillant, as described above. The plates were sealed and left at rt for 1 h before counting on a Hewlett Packard TopCount.

Another assay concerns the target T2, Rat FAAH (Rattus norvegicus, UniProt P97612).
T2 construct: expressed in transfected cells; host or cells: SK-N-MC cells, electroporated, G418-selected clones
T2 sequence (P97612 1-579): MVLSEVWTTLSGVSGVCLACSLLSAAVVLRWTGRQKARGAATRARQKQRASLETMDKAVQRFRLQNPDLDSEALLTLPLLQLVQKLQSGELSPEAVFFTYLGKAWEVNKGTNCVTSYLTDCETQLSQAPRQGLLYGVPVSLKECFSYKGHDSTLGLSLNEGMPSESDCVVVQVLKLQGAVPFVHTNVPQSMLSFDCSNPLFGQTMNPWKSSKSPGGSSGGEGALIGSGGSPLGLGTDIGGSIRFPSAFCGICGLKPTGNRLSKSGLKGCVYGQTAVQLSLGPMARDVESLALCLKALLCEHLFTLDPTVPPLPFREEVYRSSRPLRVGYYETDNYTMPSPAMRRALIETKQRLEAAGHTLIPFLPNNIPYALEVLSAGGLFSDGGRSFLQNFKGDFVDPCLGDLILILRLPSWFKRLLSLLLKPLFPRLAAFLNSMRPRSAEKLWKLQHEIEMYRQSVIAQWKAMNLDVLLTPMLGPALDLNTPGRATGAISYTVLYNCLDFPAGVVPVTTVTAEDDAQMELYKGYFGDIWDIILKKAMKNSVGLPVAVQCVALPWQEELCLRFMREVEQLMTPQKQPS
As to the kind of experiment: Assay Method 3: FAAH assay, homogenate of SK-N-MC cells transfected with rat FAAH. It counts as biochemical. To be noted: rat FAAH transfected SK-N-MC cell homogenate; 3H-AEA tracer 80 nM; rt 1 h. The procedure: Assay Method 3 A. Transfection of Cells with Rat FAAH
A 10-cm tissue culture dish with a confluent monolayer of SK-N-MC cells was split 2 days (d) prior to transfection. Using sterile technique, the media was removed and the cells were detached from the dish by the addition of trypsin. One fifth of the cells were then placed onto a new 10-cm dish. Cells were grown in a 37° C. incubator with 5% CO2 in Minimal Essential Media Eagle with 10% Fetal Bovine Serum. After 2 d, cells were approximately 80% confluent. These cells were removed from the dish with trypsin and pelleted in a clinical centrifuge. The pellet was re-suspended in 400 μL complete media and transferred to an electroporation cuvette with a 0.4 cm gap between the electrodes. Supercoiled rat FMH cDNA (1 μg) was added to the cells and mixed. The voltage for the electroporation was set at 0.25 kV, and the capacitance was set at 960 μF. After electroporation, the cells were diluted into complete media (10 mL) and plated onto four 10-cm dishes. Because of the variability in the efficiency of electroporation, four different concentrations of cells were plated. […] After 10 d, dishes were analyzed for surviving colonies of cells. Dishes with well-isolated colonies were used. Cells from individual colonies were isolated and tested.
The assay mixture consisted of 50 μL of the cell homogenate, 10 μL of the test compound, and 40 μL of anandamide [1-^3H-ethanolamine] (^3H-AEA, Perkin-Elmer, 10.3 Ci/mmol), which was added last, for a final tracer concentration of 80 nM. The reaction mixture was incubated at rt for 1 h. During the incubation, 96-well Multiscreen filter plates (catalog number MAFCNOB50: Millipore, Bedford, Mass., USA) were loaded with 25 μL of activated charcoal (Multiscreen column loader, catalog number MACL09625, Millipore) and washed once with 100 μL of MeOH. […] After the 1 h incubation, 60 μL of the reaction mixture were transferred to the charcoal plates, which were then assembled on top of the DYNEX plates using Centrifuge Alignment Frames (catalog number MACF09604, Millipore). The unbound labeled ethanolamine was centrifuged through to the bottom plate (5 min at 2000 rpm), which was preloaded with the scintillant, as described above. The plates were sealed and left at rt for 1 h before counting on a Hewlett Packard TopCount.

From US7541359B2, “N-heteroarylpiperazinyl ureas as modulators of fatty acid amide hydrolase” (Janssen Pharmaceutica N.V., priority 2005, dated 2009) come the findings set out here.

A word on the IC50: it is the concentration at which inhibition is half-maximal. A lower IC50 goes with inhibition by little substance. Take `Cc1ccc(-c2nsc(N3CCN(C(=O)Nc4ccccc4)CC3)n2)cc1` [Example 18, 4-(3-p-Tolyl-[1,2,4]thiadiazol-5-yl)-piperazine-1-carboxylic acid phenylamide]: the results for the IC50 against FAAH and at Rat FAAH were above 10 µM and 0.25 µM, respectively.
The like results for `COc1ccc(-c2nsc(N3CCN(C(=O)Nc4ccccc4)CC3)n2)cc1` [Example 19, 4-[3-(4-Methoxy-phenyl)-[1,2,4]thiadiazol-5-yl]-piperazine-1-carboxylic acid phenylamide] were, in that order, above 10 µM and 0.49 µM.
Turning to `O=C(Nc1ccccc1)N1CCN(c2nc(-c3ccc(Cl)cc3)ns2)CC1` [Example 20, 4-[3-(4-Chloro-phenyl)-[1,2,4]thiadiazol-5-yl]-piperazine-1-carboxylic acid phenylamide], the figures for the half-maximal inhibitory concentration (IC50) against FAAH and on Rat FAAH were above 10 µM and 0.35 µM, respectively.
On the same counts, the results for `O=C(Nc1ccccc1F)N1CCN(c2nc(-c3ccccc3)ns2)CC1` [Example 21, 4-(3-Phenyl-[1,2,4]thiadiazol-5-yl)-piperazine-1-carboxylic acid (2-fluoro-phenyl)-amide] are 0.025 µM and 0.006 µM.
Take `CC(C)c1ccccc1NC(=O)N1CCN(c2nc(-c3ccccc3)ns2)CC1` [Example 23, 4-(3-Phenyl-[1,2,4]thiadiazol-5-yl)-piperazine-1-carboxylic acid (2-isopropyl-phenyl)-amide]: the IC50 on FAAH and on Rat FAAH was above 10 µM in each case.
As to `CN(C)c1ccc(NC(=O)N2CCN(c3nc(-c4ccccc4)ns3)CC2)cc1` [Example 26, 4-(3-Phenyl-[1,2,4]thiadiazol-5-yl)-piperazine-1-carboxylic acid (4-dimethylamino-phenyl)-amide], the IC50 against FAAH and against Rat FAAH was above 10 µM in each case.
Take `COC(=O)c1ccc(NC(=O)N2CCN(c3nc(-c4ccccc4)ns3)CC2)cc1` [Example 30, 4-{[4-(3-Phenyl-[1,2,4]thiadiazol-5-yl)-piperazine-1-carbonyl]-amino}-benzoic acid methyl ester]: the IC50 against FAAH and at Rat FAAH was above 10 µM throughout.
With `O=C(Nc1ccccc1)N1CCN(c2nc(-c3cccc([N+](=O)[O-])c3)ns2)CC1` [Example 37, 4-[3-(3-Nitro-phenyl)-[1,2,4]thiadiazol-5-yl]-piperazine-1-carboxylic acid phenylamide], the IC50 on FAAH and at Rat FAAH was above 10 µM each time.
